Assay results taken from patent US11851406B2, “Positive allosteric modulators of the muscarinic acetylcholine receptor M1” (Vanderbilt University, priority 2018, dated 2023).

Experiments:
[1] = biological target: T1, human mAChR M1 (Homo sapiens, UniProt P11229); experiment: mAChR M1 cell-based functional assay (calcium mobilization), agonist activity upon compound addition alone; conditions: CHO-K1 cells expressing hM1; for EC50: calcium mobilization upon compound addition, no acetylcholine; for Emax: compound alone, relative to the maximum for acetylcholine
T1 sequence (P11229 1-460): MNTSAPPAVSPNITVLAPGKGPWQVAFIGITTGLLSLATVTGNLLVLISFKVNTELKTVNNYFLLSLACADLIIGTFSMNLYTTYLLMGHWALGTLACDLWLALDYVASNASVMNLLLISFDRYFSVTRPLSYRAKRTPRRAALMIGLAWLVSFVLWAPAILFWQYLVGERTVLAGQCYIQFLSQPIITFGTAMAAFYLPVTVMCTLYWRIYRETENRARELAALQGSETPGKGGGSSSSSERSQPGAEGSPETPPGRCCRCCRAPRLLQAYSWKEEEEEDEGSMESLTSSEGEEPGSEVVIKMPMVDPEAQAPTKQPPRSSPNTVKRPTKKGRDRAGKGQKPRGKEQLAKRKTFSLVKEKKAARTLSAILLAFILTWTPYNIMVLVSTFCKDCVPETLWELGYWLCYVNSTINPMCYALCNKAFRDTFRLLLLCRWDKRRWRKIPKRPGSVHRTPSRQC
Description: (§1) Chinese hamster ovary (CHO-K1) cells stably expressing rat (r)M1 were purchased from the American Type Culture Collection and cultured according to their indicated protocol. CHO cells stably expressing human (h)M2, hM3, and hM5 were described previously (Levey, et al., 1991); hM1 and hM4 cDNAs were purchased from Missouri S&T cDNA Resource; rM4 cDNA was provided by T. I. Bonner (National Institutes of Health, Bethesda, Md.). rM2 and rM3 were cloned from a rat brain cDNA library and sequence verified. hM1, rM2, rM3, hM4, and rM4 cDNAs were used to stably transfect CHO-K1 cells purchased from the American Type Culture Collection using Lipofectamine2000. To make stable rM2, hM2, rM3, hM4, and rM4 cell lines for use in calcium mobilization assays, these cells also were stably transfected with a chimeric G-protein (Gqi5) (provided by B. R. Conklin, University of California, San Francisco) using Lipofectamine 2000. rM1, hM1, rM3, hM3, rM5, and hM5 cells were grown in Ham's F-12 medium containing 10% heat-inactivated fetal bovine serum (FBS), 20 mM HEPES, and 50 μg/mL G418 sulfate. rM2-Gqi5, hM2-Gqi5, and hM4-Gqi5 cells were grown in the same medium also containing 500 μg/mL Hygromycin B. Stable rM4-Gqi5 cells were grown in DMEM containing 10% heat-inactivated FBS, 20 mM HEPES, 400 μg/mL G418 sulfate, and 500 μg/mL Hygromycin B.
(§2) For high throughput measurement of agonist-evoked increases in intracellular calcium, CHO-K1 cells stably expressing muscarinic receptors were plated in growth medium lacking G418 and hygromycin at 15,000 cells/20 μL/well in Greiner 384-well black-walled, tissue culture (TC)-treated, clear-bottom plates (VWR). Cells were incubated overnight at 37° C. and 5% CO2. The next day, cells were washed using an ELX 405 (BioTek) with four washes (80 μL) of assay buffer then aspirated to 20 μL. Next, 20 μL of 16 μM Fluo-4/acetoxymethyl ester (Invitrogen, Carlsbad, Calif.) prepared as a 2.3 mM stock in DMSO and mixed in a 1:1 ratio with 10% (w/v) Pluronic F-127 and diluted in assay buffer was added to the wells and the cell plates were incubated for 50 min at 37° C. and 5% CO2. Dye was removed by washing with the ELX 405 (four 80 μL washes of assay buffer) then aspirated to 20 μL. Compound master plates were formatted in an 11 point CRC format (1:3 dilutions) in 100% DMSO with a starting concentration of 10 mM using the BRAVO liquid handler (Agilent). Test compound CRCs were then transferred to daughter plates (240 nL) using the Echo acoustic plate reformatter (Labcyte, Sunnyvale, Calif.) and then diluted into assay buffer (40 μL) to a 2× stock using a Thermo Fisher Combi (Thermo Fisher Scientific, Waltham, Mass.).
(§3) Calcium flux was measured using the Functional Drug Screening System (FDSS) 6000 (Hamamatsu Corporation, Tokyo, Japan) as an increase in the fluorescent static ratio. Compounds were applied to cells (20 μL, 2×) using the automated system of the FDSS 6000 at 4 s into the 300 s protocol and the data were collected at 1 Hz. At 144 s into the 300 s protocol, 10 μL of an EC20 concentration of the muscarinic receptor agonist acetylcholine was added (5×), followed by the addition of 12 μL an EC80 concentration of acetylcholine at the 230 s time point (5×). Agonist activity was analyzed as a concentration-dependent increase in calcium mobilization upon compound addition. Emax values for agonist activity are expressed relative to the maximum for acetylcholine. Positive allosteric modulator activity was analyzed as a concentration-dependent increase in the EC20 acetylcholine response. Antagonist activity was analyzed as a concentration-dependent decrease in the EC80 acetylcholine response. Concentration-response curves were generated using a four-parameter logistical equation in XLfit curve fitting software (IDBS, Bridgewater, N.J.) for Excel (Microsoft, Redmond, Wash.) or Prism (GraphPad Software, Inc., San Diego, Calif.).

[2] = biological target: T1, human mAChR M1; experiment: mAChR M1 cell-based functional assay (calcium mobilization), PAM activity: increase in the EC20 acetylcholine response; conditions: CHO-K1 cells expressing hM1; calcium flux (Fluo-4); potentiation of EC20 acetylcholine response
Description: as §1, §2, §3

| EC50 [1] [µM] | Emax [1] [%] | EC50 [2] [µM] | Emax [2] [%] | SMILES |
| --- | --- | --- | --- | --- |
| > 10 | < 5 |  | 67 | Cn1cc(-c2ccc(Cc3cc(C(=O)N[C@H]4CCC[C@@H]4O)nc(-c4ccn(C)n4)c3)cn2)cn1 [Compound 6, N-((1S,2S)-2-hydroxycyclopentyl)-6-(1-methyl-1H-pyrazol-3-yl)-4-((6-(1-methyl-1H-pyrazol-4-yl)pyridin-3-yl)methyl)picolinamide] |
| > 10 | < 5 |  | 38 | Cn1cc(-c2ccc(Cc3cc(C(=O)NC[C@@H]4CCCO4)nc(-c4ccn(C)n4)c3)cn2)cn1 [Compound 7, (S)-6-(1-methyl-1H-pyrazol-3-yl)-4-((6-(1-methyl-1H-pyrazol-4-yl)pyridin-3-yl)methyl)-N-((tetrahydrofuran-2-yl)methyl)picolinamide] |
| > 10 | < 5 | 8.01 | 75 | Cn1cc(-c2ccc(Cc3cc(C(=O)NC4CCOCC4(C)C)nc(-c4ccn(C)n4)c3)cn2)cn1 (stereo not drawn) [Compound 8, N-(3,3-dimethyltetrahydro-2H-pyran-4-yl)-6-(1-methyl-1H-pyrazol-3-yl)-4-((6-(1-methyl-1H-pyrazol-4-yl)pyridin-3-yl)methyl)picolinamide] |
| 9.81 | 18 | 0.542 | 86 | Cc1c(Cc2ccc(-c3ccn(C)n3)cc2)cc(C(=O)N[C@H]2CCOC[C@@H]2O)nc1-c1ccn(C)n1 [Compound 9, N-((3R,4S)-3-hydroxytetrahydro-2H-pyran-4-yl)-5-methyl-6-(1-methyl-1H-pyrazol-3-yl)-4-(4-(1-methyl-1H-pyrazol-3-yl)benzyl)picolinamide] |
| ≥ 10 | 13 | 0.91 | 86 | Cc1c(Cc2ccc(-c3ccn(C)n3)cc2)cc(C(=O)N[C@H]2CCCC[C@@H]2O)nc1-c1ccn(C)n1 [Compound 10, N-((1S,2S)-2-hydroxycyclohexyl)-5-methyl-6-(1-methyl-1H-pyrazol-3-yl)-4-(4-(1-methyl-1H-pyrazol-3-yl)benzyl)picolinamide] |

Continued, molecule first:

| SMILES | EC50 [1] [µM] | Emax [1] [%] | EC50 [2] [µM] | Emax [2] [%] |
| --- | --- | --- | --- | --- |
| Cc1c(Cc2ccc(-c3ccn(C)n3)cc2)cc(C(=O)NC2CCOCC2)nc1-c1ccn(C)n1 [Compound 1, 5-methyl-6-(1-methyl-1H-pyrazol-3-yl)-4-(4-(1-methyl-1H-pyrazol-3-yl)benzyl)-N-(tetrahydro-2H-pyran-4-yl)picolinamide] | > 10 | < 5 | 8.72 | 85 |
| Cc1c(Cc2ccc(-c3ccn(C)n3)cc2)cc(C(=O)N[C@H]2CCOC[C@@H]2O)nc1-n1cccn1 [Compound 2, N-((3R,4S)-3-hydroxytetrahydro-2H-pyran-4-yl)-5-methyl-4-(4-(1-methyl-1H-pyrazol-3-yl)benzyl)-6-(1H-pyrazol-1-yl)picolinamide] | 7.15 | 25 | 0.317 | 78 |
| Cn1cc(-c2ccc(Cc3cc(C(=O)N[C@H]4CCCC[C@@H]4O)nc(-c4ccn(C)n4)c3)cn2)cn1 [Compound 3, N-((1S,2S)-2-hydroxycyclohexyl)-6-(1-methyl-1H-pyrazol-3-yl)-4-((6-(1-methyl-1H-pyrazol-4-yl)pyridin-3-yl)methyl)picolinamide] | > 10 | < 5 | 4 | 90 |
| Cn1cc(-c2ccc(Cc3cc(C(=O)NC4CCOCC4)nc(-c4ccn(C)n4)c3)cn2)cn1 [Compound 4, 6-(1-methyl-1H-pyrazol-3-yl)-4-((6-(1-methyl-1H-pyrazol-4-yl)pyridin-3-yl)methyl)-N-(tetrahydro-2H-pyran-4-yl)picolinamide] | > 10 | < 5 |  | 53 |
| Cn1cc(-c2ccc(Cc3cc(C(=O)NC4CC5(COC5)C4)nc(-c4ccn(C)n4)c3)cn2)cn1 [Compound 5, 6-(1-methyl-1H-pyrazol-3-yl)-4-((6-(1-methyl-1H-pyrazol-4-yl)pyridin-3-yl)methyl)-N-(2-oxaspiro[3.3]heptan-6-yl)picolinamide] | > 10 | < 5 |  | 52 |
